{"source": "paper PMC12057336", "about": "(Antimicrobial Agents and Chemotherapy, 2025)", "key": {"human OATP2B1": {"target": "T1, human OATP2B1 (Homo sapiens, UniProt O94956)", "T1 sequence (O94956 1-709)": "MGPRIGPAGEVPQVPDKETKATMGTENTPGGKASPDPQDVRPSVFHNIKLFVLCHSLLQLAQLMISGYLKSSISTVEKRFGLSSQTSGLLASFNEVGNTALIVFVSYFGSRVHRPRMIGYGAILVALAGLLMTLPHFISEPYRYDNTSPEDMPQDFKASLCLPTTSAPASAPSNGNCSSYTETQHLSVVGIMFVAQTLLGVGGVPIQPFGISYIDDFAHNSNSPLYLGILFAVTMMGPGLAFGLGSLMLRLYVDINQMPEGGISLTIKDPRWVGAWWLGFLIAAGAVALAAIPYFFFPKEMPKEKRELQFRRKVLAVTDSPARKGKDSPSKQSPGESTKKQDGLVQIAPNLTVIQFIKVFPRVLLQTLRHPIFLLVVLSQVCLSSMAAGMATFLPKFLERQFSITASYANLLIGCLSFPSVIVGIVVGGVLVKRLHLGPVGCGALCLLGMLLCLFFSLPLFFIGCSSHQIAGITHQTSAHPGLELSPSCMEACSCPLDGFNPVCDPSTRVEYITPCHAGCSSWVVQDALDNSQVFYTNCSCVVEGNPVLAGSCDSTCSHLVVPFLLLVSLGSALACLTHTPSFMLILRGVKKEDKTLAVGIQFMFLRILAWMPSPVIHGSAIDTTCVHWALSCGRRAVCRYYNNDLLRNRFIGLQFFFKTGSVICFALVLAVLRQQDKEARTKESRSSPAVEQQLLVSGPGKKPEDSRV", "experiment": "Uptake in OATP2B1-transfected HEK293 cells", "conditions": "5 µM; 10 min; 37°C; vs mock cells", "experimental": "OATP1B1-, OATP1B3-, OATP2B1-, NTCP-, OAT1-, and OAT3-transfected HEK293 cells were cultured in DMEM supplemented with 10% FBS, 100 U/mL penicillin-streptomycin at 37°C with 95% relative humidity atmosphere containing 5% CO2. All cells were seeded in 24-well plates at a density of 4 × 10^5 cells/well and cultured for 1–2 days until they reached 80%–90% confluence. Prior to the initiation of uptake studies, the cells were washed twice with HBSS buffer at 37°C. Membrane vesicles were stored at −80°C and thawed at 37°C prior to the initiation of the studies.\nAll uptake tests were performed in triplicates. The activities of transporter-transfected HEK293 cells were evaluated using relevant positive substrates and inhibitors. E17G (5 µM, OATP1B1 and OATP1B3), ES (2 µM, OATP2B1), ES (5 µM, OAT3), TCA (10 µM, NTCP), and PAH (20 µM, OAT1) were used as substrates of the transporters. The inhibitors for each transporter were rifampicin (200 µM, OATP1B1 and OATP1B3), erlotinib (10 µM, OATP2B1), CsA (20 µM, NTCP), and probenecid (200 µM, OAT1 and OAT3).\nThe cells were washed three times with ice-cold HBSS buffer. […] The total protein concentration was measured using a BCA Protein Assay Kit. The uptake rates of HEK293-OATP1B1, HEK293-OATP1B3, HEK293-OATP2B1, HEK293-NTCP, HEK293-OAT1, HEK293-OAT3, and mock cells were calculated. […]"}, "[1]": {"conditions": "rats; cited from earlier work"}, "OCT1": {"tested_on": "OCT1", "conditions": "cited from earlier work"}}}
{"compound": "CC(=O)NC[C@H]1CN(c2ccc(N3CCOCC3)c(F)c2)C(=O)O1", "note": "[Linezolid]", "values": [{"measurement": "substrate for OATP2B1", "setting": "human OATP2B1", "result": "not a substrate"}, {"measurement": "mean recovery of linezolid radioactivity in excreta", "setting": "[1]", "result": "over 95%"}, {"measurement": "inhibitor of OCT1", "setting": "OCT1", "result": "not an inhibitor"}]}
